Test results: patent US6720324B2, “Selective melanin concentrating hormone-1 (MCH1) receptor antagonists and uses thereof” (Synaptic Pharmaceutical Corporation, priority 2000, dated 2004)
Read-outs that look alike come from different tables or passages of the source. One block for each molecule: values may come before it. Ends that are not written are not given here.

What was measured:
human GALR1 = molecular target: T1, human GALR1 (Homo sapiens, UniProt P47211); assay: Radioligand binding assay, cloned receptor; settings: Table 2; read-out: hGALR1 Ki
T1 construct: expressed in transfected cells
T1 sequence (P47211 1-349): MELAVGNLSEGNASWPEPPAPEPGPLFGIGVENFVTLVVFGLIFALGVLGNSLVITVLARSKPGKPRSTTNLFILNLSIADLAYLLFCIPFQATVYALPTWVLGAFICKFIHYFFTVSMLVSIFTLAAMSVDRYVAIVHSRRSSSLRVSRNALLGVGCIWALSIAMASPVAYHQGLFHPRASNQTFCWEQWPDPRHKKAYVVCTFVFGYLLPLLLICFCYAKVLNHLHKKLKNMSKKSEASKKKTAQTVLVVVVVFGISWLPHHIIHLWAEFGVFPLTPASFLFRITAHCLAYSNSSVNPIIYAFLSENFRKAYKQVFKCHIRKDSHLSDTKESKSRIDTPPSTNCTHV
Experimental: (§1) For binding assays, pellets of transfected cells are suspended in ice-cold buffer (20 mM Tris.HCl, 5 mM EDTA, pH 7.4) and homogenized by sonication for 7 sec. The cell lysates are centrifuged at 200×g for 5 min at 4° C. The supernatants are then centrifuged at 40,000×g for 20 min at 4° C. The resulting pellets are washed once in the homogenization buffer and suspended in binding buffer (see methods for radioligand binding). Protein concentrations are determined by the method of Bradford (1976) using bovine serum albumin as the standard. Binding assays are usually performed immediately, however it is possible to prepare membranes in batch and store frozen in liquid nitrogen for future use.
(§2) The methods to obtain the cDNA of the human NPY1, NPY5, GALR1, GALR2, and GALR3 and rat 5-HT2C receptors, express said receptors in heterologous systems, and carry out assays to determine binding affinity are described in the following publications and above: human NPY1 (Larhammar et al., 1992), human NPY5 (U.S. Pat. No. 5,602,024, the disclosure of which is hereby incorporated by reference in its entirety into this application), human Gal1 (Habert-Ortoli et al., 1994), human Gal2 (Smith et al., 1997), human Gal3 (Smith et al., 1998), and rat 5-HT2C (Julius et al., 1988).

human GALR2 = molecular target: T2, human GALR2 (Homo sapiens, UniProt O43603); assay: Radioligand binding assay, cloned receptor; settings: Table 2; read-out: hGALR2 Ki
T2 construct: expressed in transfected cells
T2 sequence (O43603 1-387): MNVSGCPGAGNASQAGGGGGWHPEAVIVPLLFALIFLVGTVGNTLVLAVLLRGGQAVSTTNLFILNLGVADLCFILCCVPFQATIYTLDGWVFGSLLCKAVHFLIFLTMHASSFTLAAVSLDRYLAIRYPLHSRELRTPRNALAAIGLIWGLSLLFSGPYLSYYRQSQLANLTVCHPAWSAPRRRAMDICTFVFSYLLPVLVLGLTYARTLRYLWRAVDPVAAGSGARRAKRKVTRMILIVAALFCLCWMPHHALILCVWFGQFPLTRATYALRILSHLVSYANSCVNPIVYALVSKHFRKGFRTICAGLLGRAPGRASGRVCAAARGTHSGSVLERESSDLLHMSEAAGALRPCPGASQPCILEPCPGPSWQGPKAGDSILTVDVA
Experimental: as §1, §2

human GALR3 = molecular target: T3, human GALR3 (Homo sapiens, UniProt O60755); assay: Radioligand binding assay, cloned receptor; settings: Table 2; read-out: hGALR3 Ki
T3 construct: expressed in transfected cells
T3 sequence (O60755 1-368): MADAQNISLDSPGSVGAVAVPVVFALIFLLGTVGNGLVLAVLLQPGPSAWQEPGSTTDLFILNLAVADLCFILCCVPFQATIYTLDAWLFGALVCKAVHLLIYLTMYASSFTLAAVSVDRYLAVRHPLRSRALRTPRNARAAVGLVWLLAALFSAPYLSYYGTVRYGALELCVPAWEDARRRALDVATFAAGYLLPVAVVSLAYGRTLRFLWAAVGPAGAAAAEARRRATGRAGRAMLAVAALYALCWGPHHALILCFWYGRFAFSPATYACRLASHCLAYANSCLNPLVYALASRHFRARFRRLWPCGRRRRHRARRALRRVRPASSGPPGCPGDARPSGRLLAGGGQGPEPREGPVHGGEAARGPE
Experimental: as §1, §2

human NPY1 = molecular target: T4, human NPY1 (Homo sapiens, UniProt P25929); assay: Radioligand binding assay, cloned receptor; settings: Table 2; read-out: hNPY1 Ki
T4 construct: expressed in transfected cells
T4 sequence (P25929 1-384): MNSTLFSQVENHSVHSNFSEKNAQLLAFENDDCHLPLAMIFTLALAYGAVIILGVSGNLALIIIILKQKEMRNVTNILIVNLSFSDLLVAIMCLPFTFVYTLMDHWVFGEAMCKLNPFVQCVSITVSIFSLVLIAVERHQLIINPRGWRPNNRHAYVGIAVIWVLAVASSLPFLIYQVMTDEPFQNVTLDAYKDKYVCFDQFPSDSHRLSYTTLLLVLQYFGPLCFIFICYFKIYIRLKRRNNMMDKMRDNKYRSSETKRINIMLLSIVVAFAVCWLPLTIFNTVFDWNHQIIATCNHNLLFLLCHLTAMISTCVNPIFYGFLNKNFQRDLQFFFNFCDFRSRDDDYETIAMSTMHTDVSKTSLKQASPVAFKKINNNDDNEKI
Experimental: as §1, §2

human NPY5 = molecular target: T5, human NPY5 (Homo sapiens, UniProt Q15761); assay: Radioligand binding assay, cloned receptor; settings: Table 2; read-out: hNPY5 Ki
T5 construct: expressed in transfected cells
T5 sequence (Q15761 1-445): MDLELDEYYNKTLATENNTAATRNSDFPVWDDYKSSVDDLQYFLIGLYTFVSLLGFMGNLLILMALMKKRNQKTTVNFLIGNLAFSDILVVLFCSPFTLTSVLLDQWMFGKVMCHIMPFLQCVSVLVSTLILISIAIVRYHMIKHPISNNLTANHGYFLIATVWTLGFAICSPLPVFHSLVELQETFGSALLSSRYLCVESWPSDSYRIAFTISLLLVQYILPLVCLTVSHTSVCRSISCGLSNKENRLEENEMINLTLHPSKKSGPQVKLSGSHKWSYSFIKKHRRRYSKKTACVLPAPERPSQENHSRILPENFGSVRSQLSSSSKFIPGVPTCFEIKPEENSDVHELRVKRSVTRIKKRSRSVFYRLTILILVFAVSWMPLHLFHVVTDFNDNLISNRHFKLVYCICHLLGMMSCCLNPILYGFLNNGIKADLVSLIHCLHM
Experimental: as §1, §2

rat 5-HT2C receptor = molecular target: T6, rat 5-HT2C receptor (Rattus norvegicus, UniProt P08909); assay: Radioligand binding assay, cloned receptor; settings: Table 2; read-out: r5HT2C Ki
T6 construct: expressed in transfected cells
T6 sequence (P08909 33-460): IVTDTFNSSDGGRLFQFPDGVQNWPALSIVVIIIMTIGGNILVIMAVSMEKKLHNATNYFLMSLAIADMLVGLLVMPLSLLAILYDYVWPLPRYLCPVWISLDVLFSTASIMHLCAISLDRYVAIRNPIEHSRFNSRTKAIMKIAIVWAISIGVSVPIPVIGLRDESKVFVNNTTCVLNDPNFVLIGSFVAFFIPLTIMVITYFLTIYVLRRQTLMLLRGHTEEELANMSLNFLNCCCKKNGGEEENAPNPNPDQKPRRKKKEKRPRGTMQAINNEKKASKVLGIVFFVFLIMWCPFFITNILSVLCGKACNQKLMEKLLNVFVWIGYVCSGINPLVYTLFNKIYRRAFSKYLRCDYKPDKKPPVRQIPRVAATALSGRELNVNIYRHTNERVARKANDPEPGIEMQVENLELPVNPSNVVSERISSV
Experimental: as §1, §2

human MCH1 receptor [1] = molecular target: T7, human MCH1 receptor (Homo sapiens, UniProt Q99705); assay: Functional assay: intracellular calcium mobilization (antagonist potency Kb); format: cell-based; set-up: expressed in transfected cells; host or cells: COS-7 cells, transient, DEAE-dextran, plasmid pEXJ.HR-TL231 (ATCC 203197)
T7 sequence (Q99705 whole entry): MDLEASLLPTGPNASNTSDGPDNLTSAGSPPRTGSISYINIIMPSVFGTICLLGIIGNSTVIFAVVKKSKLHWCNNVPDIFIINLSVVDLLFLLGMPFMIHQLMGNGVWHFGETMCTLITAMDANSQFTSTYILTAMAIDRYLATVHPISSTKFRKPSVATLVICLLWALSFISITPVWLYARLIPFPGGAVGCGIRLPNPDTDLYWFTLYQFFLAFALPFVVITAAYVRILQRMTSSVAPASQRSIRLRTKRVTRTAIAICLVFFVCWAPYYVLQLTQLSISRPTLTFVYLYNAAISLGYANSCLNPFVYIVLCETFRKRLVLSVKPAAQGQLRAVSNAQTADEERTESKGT
Experimental: Intracellular calcium mobilization assays for the MCH1 receptor were carried out using plasmid pEXJ.HR-TL231 (ATCC Accession No. 203197). COS-7 cells were transiently transfected with DNA encoding the MCH1 receptor utilizing the DEAE-dextran method as described above. The intracellular free calcium concentration was measured by fluorescent imaging using the calcium sensitive fluorscent dye Fluo-3. COS-7 cells expressing the human MCH1 receptor were seeded onto sterile 96 well plates, washed with Hank's balanced salt solution (HBSS), containing 20 mM HEPES, 2.5 mM probenecid, and 0.1% BSA, and loaded with the same buffer containing 3.8 μM Fluo-3 for 1 hour at 37° C. After washing with HBSS to remove the fluo-3 solution, cells were equilibrated for 10 minutes.

G4F-7 cells = settings: cited from earlier work; for Ki: inhibition of radioiodinated [Phe13,Tyr19]-MCH binding
human MCH1 receptor [2] = molecular target: T7, human MCH1 receptor; assay: Radioligand competition binding with [3H]Compound 10, membranes of A293 cells; settings: Table 3, A293 cell membranes, [3H]Compound 10 as radioligand, read-out: hMCH1 * Ki
Experimental: as §1
Radioligand binding assays for the MCH1 receptor were carried out using plasmid pEXJ.HR-TL231 (ATCC Accession No. 203197). Plasmid pEXJ.HR-TL231 comprises the regulatory elements necessary for expression of DNA in a mammalian cell operatively linked to DNA encoding the human MCH1 receptor so as to permit expression thereof. Plasmid pEXJ.HR-TL231 was deposited on Sep. 17, 1998, with the American Type Culture Collection (ATCC), 12301 Parklawn Drive, Rockville, Md. 20852, U.S.A. under the provisions of the Budapest Treaty for the International Recognition of the Deposit of Microorganisms for the Purposes of Patent Procedure and was accorded ATCC Accession No. 203197. […]

[3] = Table 1, cloned human MCH1 receptor, functional assay, read-out: Kb (nM) hMCH1
[4] = Table 2, antagonist potency at the human MCH1 receptor, read-out: hMCH1 Kb

Ki (human GALR1): > 50000 nM | Ki (human GALR2): > 50000 nM | Ki (human GALR3): > 50000 nM | Ki (human NPY1): > 50000 nM | Ki (human NPY5): > 50000 nM | Ki (rat 5-HT2C receptor): > 50000 nM | Kb (human MCH1 receptor [1]; [3]): 162 nM | Kb (human MCH1 receptor [1]; [4]): 162 nM
Molecule: CCCCc1ccc(-c2cc(=O)[nH]c3[nH]c(=O)[nH]c(=O)c23)s1 [Example 37, 5-(5-BUTYL-2-THIENYL)PYRIDO[2,3-d]PYRIMIDINE-2,4,7(1H,3H,8H)-TRIONE]

Molecule: Melanin-concentrating hormone [native MCH]
Ki (G4F-7 cells): 12 nM

Ki (human MCH1 receptor [2]): 0.08 nM | Ki (rat 5-HT2C receptor): 29600 nM | Kb (human MCH1 receptor [1]; [3]): 0.3 nM
Molecule: COCC1=C(C(=O)OC)C(c2ccc(F)c(F)c2)N(C(=O)NCCCN2CCC(c3cccc(NC(C)=O)c3)CC2)C(=O)N1 (single isomer, unassigned; (+)) [Example 10, (+)-1,2,3,6-TETRAHYDRO-1-{N-[4-(3,-ACETAMIDO)-PHENYL-PIPERIDIN-1-YL]PROPYL}CARBOXAMIDO-4-METHOXYMETHYL-6-(3,4-DIFLUORO-PHENYL)-2-OXOPYRIMIDINE-5-CARBOXYLIC ACID METHYL ESTER]

Molecule: [Phe^13,Tyr^19]-MCH: radioiodinated MCH analogue; the ligand retained biological activity and exhibited specific binding to a variety of cell lines
Kd (G4F-7 cells; radioiodinated ligand, G4F-7 cells): 0.118 nM

Molecule: α-MSH
inhibition of binding (G4F-7 cells; radioiodinated [Phe13,Tyr19]-MCH binding): not inhibited

Molecule: rat ANF: rat ANF, weakly inhibited binding of the radioiodinated MCH analogue (SLRRSSCFGGRIDRIGAQSGLGCNSFRY; ends and bridges not checked; cysteine pairing not given here; UniProt P01161 123-150, looked up)
Ki (G4F-7 cells): 116 nM

Ki (human NPY1): > 50000 nM | Kb (human MCH1 receptor [1]; [3]): 126 nM | Kb (human MCH1 receptor [1]; [4]): 126 nM
Molecule: CCN1c2ccc(/C=C3\SC(=S)NC3=O)cc2C(C)=CC1(C)C [Example 25]

Ki (human NPY1): > 50000 nM | Kb (human MCH1 receptor [1]; [3]): 60 nM | Kb (human MCH1 receptor [1]; [4]): 60 nM
Molecule: O=C(CCCN1CCC(NC(=O)c2ccccc2)CC1)c1ccc(Cl)cc1 [Example 28, 1-[3-(4-CHLOROBENZOYL)]PROPYL-4-BENZAMIDOPIPERIDINE]
